Reference: US9255150B2, “Remedies for pemphigus containing anti-Fas ligand antibodies” (PINCELL SRL, priority 2008, dated 2016)
Peptide text beside a SMILES is read from it. * marks the point of attachment. Cbz = O=C(OCc1ccccc1)*; CH2F = FC*

Assays:
Type in all cases: cell-based, human
[1] = system: keratinocytes; experiment: Pemphigus sera-induced Dsg3 cleavage and caspase-8 activation in confluent keratinocytes, Western blotting; conditions: pretreatment with Z-IETD-FMK 100 μM for 30 min or NOK2 15 μg/ml, then 72 hrs sera; FIG. 12A
Method: To investigate whether the extrinsic apoptotic pathway is responsible for dsg cleavage, we pretreated confluent keratinocytes with caspase-8 inhibitor Z-IETD-FMK (100 μM for 30 min) or with anti-FasL (NOK2, 15 μg/ml)Ab. Then cells were incubated for 72 hrs with healthy or untreated pemphigus sera. Protein extracts from the culture were analyzed by Western blotting using anti-Dsg3 antibodies and anti-caspase-8 Ab. Vinculin was used as internal control. (FIG. 12A).

[2] = system: keratinocytes; experiment: Pemphigus sera-induced keratinocyte apoptosis, TUNEL staining; conditions: sera pretreated with anti-FasL neutralizing antibody (2.5 mg per ml for 30 min) or Z-IETD-FMK (100 μM for 30 min); FIG. 6
Method: As apoptotic keratinocytes are abundantly expressed in pemphigus, we wanted to explore whether pemphigus sera are capable of inducing apoptosis in normal human keratinocytes. To this purpose, keratinocytes were plated in chamber slides and cultured in serum-free medium (KGM) up to preconfluence. Cells were then cultured in keratinocyte basal medium and treated for 48 h with the addition of 25% serum from either untreated patients or patients treated with systemic corticosteroids. Sera from healthy subjects were used as controls. Apoptosis was evaluated by TUNEL staining in situ. Approximately 100 cells were evaluated, in randomly selected fields, and the percentage of TUNEL-positive cells was counted.
FasL is one of the major triggers of the caspase-8 activated extrinsic apoptotic pathway. Therefore, we wanted to evaluate whether this pathway plays a role in pemphigus apoptosis. To this purpose, patient sera were pretreated with anti-FasL neutralizing antibody or caspase-8 inhibitor, and added to keratinocyte cultures. Keratinocytes were cultured in KGM and treated with pemphigus sera or with sera from untreated patients. Sera were pretreated with anti-FasL neutralizing antibody (2.5 mg per ml for 30 min) or caspase-8 inhibitor Z-IETD-FMK (100 μM for 30 min). Apoptosis was evaluated by TUNEL staining.

[3] = system: keratinocytes; experiment: Pemphigus sera-induced cell detachment (acantholysis) of keratinocytes; conditions: pretreatment with Z-IETD-FMK 100 μM for 30 min or NOK2 15 μg/ml, then 72 hrs sera; FIG. 12B

SMILES: CC[C@H](C)[C@H](NC(=O)OCc1ccccc1)C(=O)N[C@@H](CCC(=O)OC)C(=O)N[C@H](C(=O)N[C@@H](CC(=O)OC)C(=O)CF)[C@@H](C)O [Z-IETD-FMK] (Cbz-IE(OMe)TD(OMe)-CH2F)
- caspase-8 activation induced by untreated pemphigus sera [1]: prevents
- dsg cleavage (Dsg3) induced by untreated pemphigus sera [1]: prevents
- pemphigus sera-induced keratinocyte apoptosis (TUNEL staining) [2]: partially prevented
- cell detachment (i.e. acantholysis) induced by untreated pemphigus sera [3]: prevented
